Test results: paper PMC4436593, “Endoplasmic reticulum stress-independent activation of unfolded protein response kinases by a small molecule ATP-mimic” (eLife, 2015)
Entries after “also recorded” stand apart in the source; their conditions may differ.

Key:
[1] = test system: XBP1 mRNA splicing in HEK293T cells; assay: XBP1 mRNA splicing by RT-PCR in HEK293T cells; assay type: cell-based, human; conditions: [AD60] = 1 μM, 4 hr
Method: To examine the effects of IPA in living cells, we monitored the UPR in HEK293T cells using RT-PCR to measure splicing of XBP1 mRNA. […] At a concentration of 2 μM IPA, splicing was induced within 2 hr (lane 5). […] We used tunicamycin (Tm), which induces ER stress by blocking N-linked glycosylation, as a positive control to induce the UPR (Figure 2A, lanes 7, and Figure 2B, lane 4).
Cells were lysed and total RNA was collected (Total RNA Kit 1, EZ-RNA, EZNA [USA]). PolyA^+ mRNA was reverse transcribed with M-MLV (Invitrogen), and the resulting cDNA was used as a template for PCR amplification across the fragment of XBP1 cDNA containing the intron. Primers used to amplify human XBP1: 5′-[…]-3′ and 5′-[…]-3′. To amplify murine XBP1: 5′-[…]-3′ and 5′-[…]-3′. PCR conditions were as follows: 95°C for 5 min, 95°C for 1 min, 58°C for 30 s, 72°C for 30 s, and 72°C for 5 min, with 20 cycles of amplification. PCR products were resolved on a 2.5% agarose tris-acetate EDTA (TAE) gel. As previously reported, a hybrid amplicon species consisting of unspliced Xbp-1 annealed to spliced Xbp-1 can also be produced through this PCR reaction and was visible as a slower migrating band above the unspliced amplicon. The same cDNA was used as template for PCR of DERLIN-3 and HERPUD1, both ATF6 targets, and GAPDH, which was used as loading control. Primers used included the following: DERLIN-3, 5′-[…]-3′ and 5′-[…]-3′; HERPUD1-1, 5′-[…]-3′ and 5′-[…]-3′; GAPDH, 5′-[…]-3′ and 5′-[…]-3′. PCR conditions were: 95°C × 5 min, 95°C × 1 min, 56°C × 30 s, 72°C for 30 s for 25 cycles, 72°C for 5 min at 4°C. PCR products were resolved on a 2% agarose TAE gel.

[2] = test system: XBP1 mRNA-splicing reporter (IRE1-mediated) in HEK293T cells; assay: XBP1-luciferase splicing reporter in HEK293T cells; assay type: cell-based; conditions: Homo sapiens, HEK-293T, in the presence of Tm (2 μg/ml), read-out: IC50 of XBP1-luciferase-splicing reporter activation
From the text: A plasmid encoding a modified ER stress reporter construct consisting of a C-terminally FLAG-tagged firefly luciferase coding sequence fused to an N-terminal hemagglutinin-tagged tandem repeat of a partial sequence of XBP1 of human origin lacking its DNA-binding domain and containing the IRE1-cognate intron (pCAX-HA-2xXBP1ΔDBD(anATG)-LUC-F, kind gift of Takao Iwawaki [[Hosoda et al., 2010]]), was used as a template to generate a retroviral expression construct. The coding sequence of the reporter was amplified by PCR using primers with engineered BamHI and EcoRI sites and was subsequently cloned into the cognate sites of the retroviral expression vector pBABE.puro (Addgene) to generate construct DAA-A171. DAA-A171 was used to generate recombinant retroviral particles using standard methods and the resulting retroviral supernatant was used to transduce HEK293T cells, which were then subsequently selected with puromycin to create a stable reporter cell line.

[3] = test system: HEK293T cells; assay: HEK293T cell viability (CellTiter-Blue, 24 hr); assay type: cell-based; conditions: 24 hr, 1 μM, listed as GSK
Method: HEK293T cells were grown in DMEM (Sigma) complete media containing 10% FBS, 10 units/ml penicillin (Invitrogen), and 10 μg/ml streptomycin (Invitrogen). Cells were plated at a density of 30,000 cells per well in 96-well black plates with clear flat bottoms (Corning, Sigma-Aldrich) 24 hr before the experiment. A 12-point semi-logarithmic dilution series of compounds was made starting at 30 μM not to exceed 0.1% DMSO after final dilution into the growth media. Viability assays were conducted over the course of 24 hr. Cell viability was determined using CellTiter-Blue (Promega) following the manufacturer's instructions. […] Experiments were done in triplicate, and mean values were computed for each data point.

[4] = test system: PERK and eIF2α phosphorylation in HEK293T cells; assay: PERK mobility shift and eIF2α phosphorylation by immunoblotting in HEK293T cells; assay type: cell-based
Method: To evaluate effects of IPA on the PERK branch, we measured the phosphorylation state of PERK and eIF2α by Western blotting. […] We also monitored PERK activation by phosphorylation of eIF2α, detected with a phospho-eIF2α-specific antibody (Figure 3C).
Cells were lysed in 50 mM Tris-HCl, 2% SDS, 10% glycerol, 0.01% bromophenol blue, pH 6.8 supplemented with phosphatase inhibitors (Sigma) and protease inhibitors (Roche). 30 μg to 50 μg of total protein was loaded on each lane of 8% or 10% SDS-PAGE gels. The separated proteins were then transferred onto nitrocellulose membranes for immunoblotting. The following antibodies and dilutions were used: anti-β-actin 1:10,000 (A5441, Sigma), anti-total PERK at 1:1000 (C33E10, Cell Signaling Technology), anti-phospho eIF2α at 1:1000 (3597S, Cell Signaling Technology), anti-total eIF2α at 1:1000 (L57A5, Cell Signaling Technology). After overnight incubation with primary antibody, membranes were washed in PBS with 0.05% Tween and incubated in HRP-coupled secondary antibody anti-rabbit (611–1302, Rockland) or anti-mouse (610–1302, Rockland) diluted at 1:5000 in wash buffer. Immunoreactive bands were detected by chemiluminescence.

[5] = test system: protein translation in HEK293T cells; assay: Metabolic labeling: [35S] methionine incorporation in HEK293T cells; assay type: cell-based; conditions: IPA 1 μM + GSK 1 μM
Method: HEK293T cells (500,000 cells/ml) were plated in 12-well flat bottom culture cluster dishes (Costar, Fisher Scientific) 24 hr before the experiment. IPA (1 μM), or a combination of IPA with GSK2606414 (TRC inc. […] Cells lysates were kept on ice for 30 min before high-speed centrifugation followed by denaturation at 95°C. The samples were resolved on an SDS-polyacrylamide gel, which were then stained with Coomassie blue to ascertain protein loading. […] The resulting autoradiograms were quantified using ImageQuant software (Molecular Dynamics).

[6] = test system: PERK; design: method as in Axten et al., 2012; Moreno et al., 2013; conditions: ref Axten et al., 2012; Moreno et al., 2013; read-out: EC50 of PERK inhibition in cells; cited from earlier work

| SMILES | effect on Tm-induced XBP1 mRNA splicing ([1]; Tm) | effect on IPA-induced XBP1 mRNA splicing ([1]; up to highest IPA concentration tested) | IC50 [2] | effect on HEK293T cell viability at 1 μM [3] | effect of compound alone on the PERK pathway ([4]; GSK 1 μM alone) | effect on IPA-induced PERK and eIF2α phosphorylation ([4]; GSK 1 μM, IPA 0.5 and 1 μM) | effect on translation in IPA-treated cells [5] | EC50 [6] |
| --- | --- | --- | --- | --- | --- | --- | --- | --- |
| Nc1ncnc2c1c(-c1ccc(NC(=O)Nc3cccc(C(F)(F)F)c3)cc1)nn2C1CCCC1 [AD60, reference compound] | inhibited Tm-induced XBP1 mRNA splicing | fully ablated IPA-induced XBP1 mRNA splicing | 750 nM |  |  |  |  |  |
| Cn1cc(-c2ccc3c(c2)CCN3C(=O)Cc2cccc(C(F)(F)F)c2)c2c(N)ncnc21 [GSK2606414, 7-methyl-5-(1-{[3-(trifluoromethyl)phenyl]acetyl}-2,3-dihydro-1H-indol-5-yl)-7H-p yrrolo[2,3-d]pyrimidin-4-amine, reference compound] |  |  |  | No effect on viability was observed; also recorded: no cell toxicity | No effect on the pathway was observed | abolished IPA-induced PERK and eIF2α phosphorylation | restored translation to baseline levels | […] |
